Reference: paper PMC2376372, “3-Bromophenyl 6-acetoxymethyl-2-oxo-2H-1-benzopyran-3-carboxylate inhibits cancer cell invasion in vitro and tumour growth in vivo” (British Journal of Cancer, 2003)

Target: T1, Plasmin (Homo sapiens, UniProt P00747)
T1 construct: No; X′; α-CT; HLE; LMW-uPA; Plasmin; purchased Biogenic
Assay: Inactivation of plasmin (preincubation method)
Format: biochemical
Settings: pH 7.5, 25°C; preincubation method; NI=no inhibition
Method: Bovine α-CT and LMW-uPA (MW=33 000 Da) were purchased from Sigma, HMW-uPA (MW=54 000 Da) from Choay, trypsin (TRY) and THR from Boehringer-Indelheim (Germany), and MMP-2 and MMP-9 from Calbiochem. Human leucocyte elastase and PM were from Elastase Products Co. and Biogenic, respectively. Except for THR, HMW-uPA, MMP-2 and MMP-9, enzyme concentrations were determined by active-site titrations using the appropriate titrant ([Bender et al, 1966]; [Chase and Shaw, 1970]; [Powers and Gupton, 1977]). […]
The kinetic parameters for the inhibition were determined either by the preincubation method for LMW-uPA and PM (small aliquots of the reaction mixture were withdrawn at intervals of time and the remaining activity determined), or by the progress curve method (HLE) when the inhibition was too fast to be measured accurately using the preincubation method. […]
At low inhibitor concentrations, the ratio ki/KI was obtained as kobs/[I]0. […] In the progress curve method, the substrate competes with the inhibitor and the kinetic parameters are determined as previously described ([Doucet et al, 1999]). […]

T1 sequence (P00747 581-810 limits assumed, species assumed): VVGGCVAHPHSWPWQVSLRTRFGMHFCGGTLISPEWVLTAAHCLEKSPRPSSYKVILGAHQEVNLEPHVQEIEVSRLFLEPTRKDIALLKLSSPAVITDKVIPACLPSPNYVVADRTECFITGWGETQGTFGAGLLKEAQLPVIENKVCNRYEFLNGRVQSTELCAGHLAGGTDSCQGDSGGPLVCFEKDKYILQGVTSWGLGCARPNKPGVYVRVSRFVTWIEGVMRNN
T1 sequence (P00747 97-580 partner limits assumed, species assumed): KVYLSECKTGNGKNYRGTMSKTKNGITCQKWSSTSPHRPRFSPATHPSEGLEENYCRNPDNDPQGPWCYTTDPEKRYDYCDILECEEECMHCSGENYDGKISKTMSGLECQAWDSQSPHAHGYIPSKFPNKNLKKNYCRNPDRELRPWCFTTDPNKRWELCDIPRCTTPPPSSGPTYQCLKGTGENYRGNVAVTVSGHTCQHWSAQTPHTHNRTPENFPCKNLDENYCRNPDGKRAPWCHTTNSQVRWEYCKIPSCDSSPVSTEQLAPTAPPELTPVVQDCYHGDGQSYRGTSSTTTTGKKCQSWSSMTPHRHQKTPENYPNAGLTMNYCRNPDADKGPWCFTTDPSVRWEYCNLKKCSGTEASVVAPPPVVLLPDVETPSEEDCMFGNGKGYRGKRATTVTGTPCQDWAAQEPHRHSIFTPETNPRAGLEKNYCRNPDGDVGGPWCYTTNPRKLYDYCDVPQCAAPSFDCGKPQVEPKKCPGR

Question: For `CC(=O)OCc1ccc2oc(=O)c(C(=O)Oc3cccc(Cl)c3)cc2c1` [compound 4, 3-chlorophenyl 6-acetoxymethyl-2-oxo-2H-1-benzopyran-3-carboxylate], which “ki/KI or kobs/[I], Plasmin” value is on record?
Answer: not affected
